Experimental data taken from paper PMC7413254 (Nature Communications, 2020).

Legend:
Format in all cases: cell-based
PfCRT^3D7 = PfCRT^3D7 (Plasmodium falciparum, UniProt Q8IBZ9); experiment: cell-based; conditions: PfCRT3D7 oocytes, normalised to oocyte type control
In short: (§1)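 Transport measured in Xenopus oocytes expressing the transporters, 1.5 h at 27.5 °C in ND96 pH 5.5 unless noted. For trans-stimulation, VF-6 injected in 25 nL ND96 at pH 5.0–7.0 or Na^+-free (choline) buffer; intracellular levels based on ~400 nL oocyte volume. Ten oocytes per treatment, ≥4 experiments.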

PfCRT^Ecu1110 [1] = molecular target: T1, PfCRT^Ecu1110 (Plasmodium falciparum, UniProt Q9N623, A220S/I356L/K76T/N326D); experiment: cell-based; conditions: for PfCRT-mediated [3H]CQ transport, trans-stimulation (% PfCRTEcu1110 control): PfCRTEcu1110 oocytes, normalised to oocyte type control; for [3H]CQ transport (% PfCRTDd2 control), trans-stimulation, PfCRTEcu1110: PfCRT-mediated component (background subtracted), sheet title says normalised to PfCRTDd2 control, mean ± SEM, SEM
In short: as §1

PfCRT^Dd2 [2] = molecular target: T2, PfCRT^Dd2 (Plasmodium falciparum, UniProt Q9N623, A220S/I356T/K76T/M74I/N326S/N75E/Q271E/R371I); experiment: cell-based; conditions: for PfCRT-mediated [3H]CQ transport, trans-stimulation (% PfCRTDd2 control): PfCRTDd2 oocytes, normalised to oocyte type control; for [3H]CQ transport (% PfCRTDd2 control), trans-stimulation, PfCRTDd2: PfCRT-mediated component (background subtracted), mean ± SEM, SEM
In short: as §1

PfCRT^Ecu1110 [3] = molecular target: T1, PfCRT^Ecu1110; experiment: [3H]CQ uptake into Xenopus oocytes, cis-inhibition by unlabelled solute; conditions: for PfCRT-mediated [3H]CQ transport, cis-inhibition (% PfCRTEcu1110 control): PfCRTEcu1110 oocytes, background [3H]CQ accumulation subtracted, normalised to oocyte type control; for [3H]CQ transport (% PfCRTEcu1110 control), cis-inhibition, PfCRTEcu1110: PfCRT-mediated component (background subtracted), sheet title says normalised to PfCRTDd2 control, mean ± SEM, SEM
In short: (§2)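 Radioactivity accumulated per oocyte, read by liquid scintillation after 10% SDS lysis, served as the uptake measure. Incubations ran 1.5 h at 27.5 °C in ND96 at pH 5.5, matching digestive-vacuole acidity.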

PfCRT^Dd2 [4] = molecular target: T2, PfCRT^Dd2; experiment: as above; conditions: PfCRTDd2 oocytes, background [3H]CQ accumulation subtracted, normalised to oocyte type control
In short: as §2

[5] = [test solute]i = 5 mM (intracellular)
[6] = [test solute]i = 45 mM (intracellular; 30 mM for some solutes due to solubility)
[7] = [test solute]i = 5 mM (injected)
[8] = [test solute]i = 45 mM (30 mM for some solutes due to solubility)

PfCRT^3D7, sequence (Q8IBZ9 59-398): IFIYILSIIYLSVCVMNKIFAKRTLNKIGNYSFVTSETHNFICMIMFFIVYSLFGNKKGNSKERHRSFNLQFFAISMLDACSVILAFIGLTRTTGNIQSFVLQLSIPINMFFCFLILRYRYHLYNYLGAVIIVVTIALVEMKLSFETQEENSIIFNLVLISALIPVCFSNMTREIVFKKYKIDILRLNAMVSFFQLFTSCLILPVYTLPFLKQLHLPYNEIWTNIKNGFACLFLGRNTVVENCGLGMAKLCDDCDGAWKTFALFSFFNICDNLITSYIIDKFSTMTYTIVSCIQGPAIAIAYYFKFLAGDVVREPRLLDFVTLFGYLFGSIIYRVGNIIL
T2 sequence (Q9N623 whole entry A220S/I356T/K76T/M74I/N326S/N75E/Q271E/R371I): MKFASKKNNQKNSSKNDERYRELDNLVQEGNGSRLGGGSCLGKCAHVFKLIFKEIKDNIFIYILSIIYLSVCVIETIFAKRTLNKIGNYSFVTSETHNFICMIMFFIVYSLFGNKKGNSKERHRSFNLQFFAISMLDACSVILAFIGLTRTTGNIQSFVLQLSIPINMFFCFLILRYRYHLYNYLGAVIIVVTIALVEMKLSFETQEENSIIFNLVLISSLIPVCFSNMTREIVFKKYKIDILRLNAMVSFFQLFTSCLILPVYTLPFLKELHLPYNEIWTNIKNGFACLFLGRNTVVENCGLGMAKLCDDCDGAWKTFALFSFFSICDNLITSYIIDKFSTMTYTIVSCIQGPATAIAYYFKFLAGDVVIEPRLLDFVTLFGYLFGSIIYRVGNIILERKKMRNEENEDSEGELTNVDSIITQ
T1 sequence (Q9N623 whole entry A220S/I356L/K76T/N326D): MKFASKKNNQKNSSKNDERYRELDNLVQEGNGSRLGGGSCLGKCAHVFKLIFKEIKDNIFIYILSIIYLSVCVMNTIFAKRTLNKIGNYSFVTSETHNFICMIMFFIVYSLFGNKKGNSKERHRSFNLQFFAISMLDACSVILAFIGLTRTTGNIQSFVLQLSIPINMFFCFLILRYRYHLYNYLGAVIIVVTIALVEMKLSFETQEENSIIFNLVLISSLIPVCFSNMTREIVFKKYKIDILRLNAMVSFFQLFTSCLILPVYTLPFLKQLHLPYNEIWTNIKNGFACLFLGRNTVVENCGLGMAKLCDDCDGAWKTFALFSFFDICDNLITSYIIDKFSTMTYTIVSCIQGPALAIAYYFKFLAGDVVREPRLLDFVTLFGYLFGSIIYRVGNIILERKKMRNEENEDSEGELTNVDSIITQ

Substance	PfCRT-mediated [3H]CQ transport, trans-stimulation (% PfCRT3D7 control) (PfCRT^3D7; [5])	PfCRT-mediated [3H]CQ transport, trans-stimulation (% PfCRT3D7 control) (PfCRT^3D7; [6])	PfCRT-mediated [3H]CQ transport, trans-stimulation (% PfCRTEcu1110 control) (PfCRT^Ecu1110 [1]; [5])	PfCRT-mediated [3H]CQ transport, trans-stimulation (% PfCRTEcu1110 control) (PfCRT^Ecu1110 [1]; [6])	[3H]CQ transport (% PfCRTDd2 control), trans-stimulation, PfCRTEcu1110 (PfCRT^Ecu1110 [1]; [7]) [% PfCRTEcu1110 control]	[3H]CQ transport (% PfCRTDd2 control), trans-stimulation, PfCRTEcu1110 (PfCRT^Ecu1110 [1]; [8]) [% PfCRTEcu1110 control]	PfCRT-mediated [3H]CQ transport, trans-stimulation (% PfCRTDd2 control) (PfCRT^Dd2 [2]; [5])	PfCRT-mediated [3H]CQ transport, trans-stimulation (% PfCRTDd2 control) (PfCRT^Dd2 [2]; [6])	[3H]CQ transport (% PfCRTDd2 control), trans-stimulation, PfCRTDd2 (PfCRT^Dd2 [2]; [7]) [% PfCRTDd2 control]	[3H]CQ transport (% PfCRTDd2 control), trans-stimulation, PfCRTDd2 (PfCRT^Dd2 [2]; [8]) [% PfCRTDd2 control]	PfCRT-mediated [3H]CQ transport, cis-inhibition (% PfCRTEcu1110 control) (PfCRT^Ecu1110 [3]; [test solute] = 0.5 mM)	PfCRT-mediated [3H]CQ transport, cis-inhibition (% PfCRTEcu1110 control) (PfCRT^Ecu1110 [3]; [test solute] = 1 mM)	PfCRT-mediated [3H]CQ transport, cis-inhibition (% PfCRTEcu1110 control) (PfCRT^Ecu1110 [3]; [test solute] = 2 mM)	[3H]CQ transport (% PfCRTEcu1110 control), cis-inhibition, PfCRTEcu1110 (PfCRT^Ecu1110 [3]; [test solute] = 1 mM) [% PfCRTEcu1110 control]	[3H]CQ transport (% PfCRTEcu1110 control), cis-inhibition, PfCRTEcu1110 (PfCRT^Ecu1110 [3]; [test solute] = 2 mM) [% PfCRTEcu1110 control]	PfCRT-mediated [3H]CQ transport, cis-inhibition (% PfCRTDd2 control) (PfCRT^Dd2 [4]; [test solute] = 0.5 mM)	PfCRT-mediated [3H]CQ transport, cis-inhibition (% PfCRTDd2 control) (PfCRT^Dd2 [4]; [test solute] = 1 mM)	PfCRT-mediated [3H]CQ transport, cis-inhibition (% PfCRTDd2 control) (PfCRT^Dd2 [4]; [test solute] = 2 mM)	[3H]CQ transport (% PfCRTEcu1110 control), cis-inhibition, PfCRTEcu1110 (PfCRT^Ecu1110 [3]; [test solute] = 0.5 mM) [% PfCRTEcu1110 control]
TPPVQ [TQ-5]	94 ± 3.5	96 ± 4.2	96 ± 3.5	96 ± 2.3	29 ± 1.6	30 ± 1.6	96 ± 3.2	97 ± 4.5	96 ± 3.2	97 ± 4.5	56 ± 3.1	49 ± 2.6	42 ± 2.4	15 ± 0.1	13 ± 0.1	50 ± 2.1	30 ± 2.1	15 ± 0.3	
SHCLLVT [ST-7]	140 ± 4.3	192 ± 4.6	130 ± 3.2	136 ± 4.3	39 ± 1.3	41 ± 2.2	97 ± 3.2	113 ± 2.0	97 ± 3.2	113 ± 2.0	39 ± 1.1	31 ± 2.5	19 ± 1.4	10 ± 0.1	6.0 ± 0.02	38 ± 1.0	27 ± 1.3	12 ± 0.1	12 ± 0.5
PNALS [PS-5, host-derived peptide upstream of PL-4]	131 ± 6.2	180 ± 3.6	127 ± 2.6	136 ± 4.6	38 ± 1.5	41 ± 2.2	99 ± 4.6	96 ± 4.1	99 ± 4.6	96 ± 4.1	50 ± 2.5	42 ± 1.8	29 ± 1.1	13 ± 0.1	9.0 ± 0.01		30 ± 2.7	19 ± 0.3	
HVDPEN [HN-6]	148 ± 4.6	193 ± 4.7	117 ± 2.2	136 ± 3.2	35 ± 1.3	41 ± 1.6	100 ± 2.1	113 ± 1.1	100 ± 2.1	113 ± 1.1	61 ± 1.5	44 ± 3.1	49 ± 2.4	14 ± 0.1	15 ± 0.4	21 ± 0.7	15 ± 1.1	7.3 ± 0.2	19 ± 0.3
DPENF [DEF-5]	129 ± 3.2	162 ± 4.2	122 ± 1.9	137 ± 2.5	37 ± 1.5	41 ± 2.3	100 ± 2.1	112 ± 0.5	100 ± 2.1	112 ± 0.5	41 ± 2.7	28 ± 1.0	18 ± 0.3		6.0 ± 0.3	29 ± 2.1	20 ± 1.1	11 ± 0.1	13 ± 0.1
